In ChEMBL document CHEMBL1201862, “PubChem BioAssay data set” (2004):
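In this assay, cells in 96-well plates receive the compound at five concentrations for 48 hours. Endpoints are linearly interpolated between the surrounding concentrations. GI50 marks 50% less growth.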 Active and inactive are the calls of the source. No stated cut-off is given here; in the data, active = GI50 up to about 1.1 µM and inactive = higher.

Assays:
Test in all cases: inhibition of tumour cell growth, NCI panel, 48 h
NCI-H226 = tested on: NCI-H226
SN12C = tested on: SN12C
EKVX = tested on: EKVX
KM-20L2 = tested on: KM-20L2
HT-29 = tested on: HT-29
LOX IMVI = tested on: LOX IMVI
HOP-18 = tested on: HOP-18
SK-MEL-2 = tested on: SK-MEL-2
RXF 393 = tested on: RXF 393
OVCAR-8 = tested on: OVCAR-8
SF-539 = tested on: SF-539
SNB-78 = tested on: SNB-78
SF-268 = tested on: SF-268
Malme-3M = tested on: Malme-3M
SK-MEL-28 = tested on: SK-MEL-28
RXF 631 = tested on: RXF 631
SK-MEL-5 = tested on: SK-MEL-5
SK-OV-3 = tested on: SK-OV-3
OVCAR-3 = tested on: OVCAR-3
UO-31 = tested on: UO-31
CCRF-CEM = tested on: CCRF-CEM
UACC-62 = tested on: UACC-62
HOP-92 = tested on: HOP-92
HL-60 = tested on: HL-60
COLO 205 = tested on: COLO 205
OVCAR-5 = tested on: OVCAR-5
IGROV-1 = tested on: IGROV-1
SNB-75 = tested on: SNB-75
HCT-15 = tested on: HCT-15
CAKI-1 = tested on: CAKI-1
MOLT-4 = tested on: MOLT-4
UACC-257 = tested on: UACC-257
U-251 = tested on: U-251
A549 = tested on: A549
786-0 = tested on: 786-0
TK-10 = tested on: TK-10
NCI-H522 = tested on: NCI-H522
ACHN = tested on: ACHN
A498 = tested on: A498
HCC 2998 = tested on: HCC 2998
SW-620 = tested on: SW-620
K562 = tested on: K562
RPMI-8226 = tested on: RPMI-8226
KM12 = tested on: KM12
DMS-273 = tested on: DMS-273
HOP-62 = tested on: HOP-62
NCI-H23 = tested on: NCI-H23
NCI-H460 = tested on: NCI-H460
SF-295 = tested on: SF-295
DLD-1 = tested on: DLD-1
DMS-114 = tested on: DMS-114
SR = tested on: SR
SNB-19 = tested on: SNB-19
LXFL 529 = tested on: LXFL 529
HCT-116 = tested on: HCT-116
M14 = tested on: M14
M19-MEL = tested on: M19-MEL

## CC(=O)NNc1nc(C)c(C(=O)/C=C/c2ccc(N(C)C)cc2)s1
NCI-H226
  GI50: > 100 µM (inactive)
SN12C
  GI50: > 100 µM (inactive)
EKVX
  GI50: > 100 µM (inactive)
KM-20L2
  GI50: > 100 µM (inactive)
HT-29
  GI50: > 100 µM (inactive)
LOX IMVI
  GI50: > 100 µM (inactive)
HOP-18
  GI50: > 100 µM (inactive)
SK-MEL-2
  GI50: > 100 µM (inactive)
RXF 393
  GI50: 88.9 µM (inactive)
OVCAR-8
  GI50: > 100 µM (inactive)
SF-539
  GI50: > 100 µM (inactive)
SNB-78
  GI50: > 100 µM (inactive)
SF-268
  GI50: > 100 µM (inactive)
Malme-3M
  GI50: > 100 µM (inactive)
SK-MEL-28
  GI50: > 100 µM (inactive)
RXF 631
  GI50: > 100 µM (inactive)
SK-MEL-5
  GI50: > 100 µM (inactive)
SK-OV-3
  GI50: > 100 µM (inactive)
OVCAR-3
  GI50: > 100 µM (inactive)
UO-31
  GI50: > 100 µM (inactive)
CCRF-CEM
  GI50: > 100 µM (inactive)
UACC-62
  GI50: > 100 µM (inactive)
HOP-92
  GI50: > 100 µM (inactive)
HL-60
  GI50: > 100 µM (inactive)
COLO 205
  GI50: > 100 µM (inactive)
OVCAR-5
  GI50: > 100 µM (inactive)
IGROV-1
  GI50: > 100 µM (inactive)
SNB-75
  GI50: 79.8 µM (inactive)
HCT-15
  GI50: > 100 µM
CAKI-1
  GI50: > 100 µM (inactive)
MOLT-4
  GI50: > 100 µM (inactive)
UACC-257
  GI50: > 100 µM (inactive)
U-251
  GI50: > 100 µM (inactive)
A549
  GI50: > 100 µM (inactive)
786-0
  GI50: > 100 µM (inactive)
TK-10
  GI50: > 100 µM (inactive)
NCI-H522
  GI50: > 100 µM (inactive)
ACHN
  GI50: > 100 µM (inactive)
A498
  GI50: > 100 µM (inactive)
HCC 2998
  GI50: > 100 µM (inactive)
SW-620
  GI50: > 100 µM (inactive)
K562
  GI50: > 100 µM (inactive)
RPMI-8226
  GI50: > 100 µM (inactive)
KM12
  GI50: > 100 µM (inactive)
DMS-273
  GI50: > 100 µM (inactive)
HOP-62
  GI50: > 100 µM (inactive)
NCI-H23
  GI50: > 100 µM (inactive)
NCI-H460
  GI50: > 100 µM (inactive)
SF-295
  GI50: > 100 µM (inactive)
DLD-1
  GI50: > 100 µM (inactive)
DMS-114
  GI50: > 100 µM (inactive)

## C1CCCCc2nc3c(nc2CCC1)c1nc2c(nc1c1nc4c(nc31)CCCCCCCC4)CCCCCCCC2
SR
  GI50: > 100 µM (inactive)
SN12C
  GI50: > 100 µM (inactive)
KM-20L2
  GI50: > 100 µM (inactive)
HT-29
  GI50: > 100 µM (inactive)
LOX IMVI
  GI50: > 100 µM (inactive)
HOP-18
  GI50: > 100 µM (inactive)
SK-MEL-2
  GI50: > 100 µM (inactive)
OVCAR-8
  GI50: > 100 µM (inactive)
SNB-19
  GI50: > 100 µM (inactive)
LXFL 529
  GI50: > 100 µM (inactive)
SF-539
  GI50: > 100 µM (inactive)
SNB-78
  GI50: > 100 µM (inactive)
SF-268
  GI50: > 100 µM (inactive)
Malme-3M
  GI50: > 100 µM (inactive)
SK-MEL-28
  GI50: > 100 µM (inactive)
RXF 631
  GI50: > 100 µM (inactive)
SK-OV-3
  GI50: > 100 µM (inactive)
UO-31
  GI50: > 100 µM (inactive)
CCRF-CEM
  GI50: > 100 µM (inactive)
UACC-62
  GI50: > 100 µM (inactive)
HOP-92
  GI50: > 100 µM (inactive)
HL-60
  GI50: > 100 µM (inactive)
COLO 205
  GI50: > 100 µM (inactive)
OVCAR-5
  GI50: > 100 µM (inactive)
IGROV-1
  GI50: > 100 µM (inactive)
SNB-75
  GI50: > 100 µM (inactive)
HCT-15
  GI50: > 100 µM
CAKI-1
  GI50: > 10 µM (inactive)
MOLT-4
  GI50: > 100 µM (inactive)
UACC-257
  GI50: > 100 µM (inactive)
U-251
  GI50: > 100 µM (inactive)
HCT-116
  GI50: > 100 µM (inactive)
A549
  GI50: > 100 µM (inactive)
786-0
  GI50: > 100 µM (inactive)
TK-10
  GI50: > 100 µM (inactive)
ACHN
  GI50: > 100 µM (inactive)
A498
  GI50: > 100 µM (inactive)
HCC 2998
  GI50: > 100 µM (inactive)
SW-620
  GI50: > 100 µM (inactive)
K562
  GI50: > 100 µM (inactive)
KM12
  GI50: > 100 µM (inactive)
M14
  GI50: > 100 µM (inactive)
HOP-62
  GI50: 82.6 µM (inactive)
NCI-H23
  GI50: > 100 µM (inactive)
NCI-H460
  GI50: > 100 µM (inactive)
SF-295
  GI50: > 100 µM (inactive)
DLD-1
  GI50: > 100 µM (inactive)

## NC(CCc1nc(-c2cccc([N+](=O)[O-])c2)cs1)C(=O)O (centres undefined)
SR
  GI50: > 100 µM (inactive)
EKVX
  GI50: > 100 µM (inactive)
KM-20L2
  GI50: > 100 µM (inactive)
HT-29
  GI50: > 100 µM (inactive)
RXF 393
  GI50: > 100 µM (inactive)
OVCAR-8
  GI50: > 100 µM (inactive)
SNB-19
  GI50: > 100 µM (inactive)
SNB-78
  GI50: > 100 µM (inactive)
SK-MEL-28
  GI50: > 100 µM (inactive)
RXF 631
  GI50: > 100 µM (inactive)
SK-OV-3
  GI50: > 100 µM (inactive)
UO-31
  GI50: > 100 µM (inactive)
CCRF-CEM
  GI50: > 100 µM (inactive)
UACC-62
  GI50: > 100 µM (inactive)
HOP-92
  GI50: > 100 µM (inactive)
HL-60
  GI50: > 100 µM (inactive)
OVCAR-5
  GI50: > 100 µM (inactive)
IGROV-1
  GI50: > 100 µM (inactive)
MOLT-4
  GI50: > 100 µM (inactive)
UACC-257
  GI50: > 100 µM (inactive)
U-251
  GI50: > 100 µM (inactive)
HCT-116
  GI50: > 100 µM (inactive)
A549
  GI50: > 100 µM (inactive)
TK-10
  GI50: > 100 µM (inactive)
NCI-H522
  GI50: > 100 µM (inactive)
ACHN
  GI50: > 100 µM (inactive)
A498
  GI50: > 100 µM (inactive)
M19-MEL
  GI50: > 100 µM (inactive)
KM12
  GI50: > 100 µM (inactive)
DMS-273
  GI50: > 100 µM (inactive)
M14
  GI50: > 100 µM (inactive)
HOP-62
  GI50: > 100 µM (inactive)
NCI-H23
  GI50: > 100 µM (inactive)
NCI-H460
  GI50: > 100 µM (inactive)
SF-295
  GI50: > 100 µM (inactive)
DMS-114
  GI50: > 100 µM (inactive)
